The values below come from patent US8273770B2, “5-pyridinone substituted indazoles” (Albany Molecular Research, Inc., priority 2007, dated 2012).

Structures can show the parent of a compound that is named as a salt.

The Ki is the dissociation constant of the complex between target and ligand, obtained from inhibition or displacement. For orientation: melting point means the temperature, or range, at which the solid turns liquid.

For one series, the target named is T1, human MCH1 receptor (Homo sapiens, UniProt Q99705).
T1 construct: host or cells: CHO cells (assay I)
T1 sequence (Q99705 whole entry): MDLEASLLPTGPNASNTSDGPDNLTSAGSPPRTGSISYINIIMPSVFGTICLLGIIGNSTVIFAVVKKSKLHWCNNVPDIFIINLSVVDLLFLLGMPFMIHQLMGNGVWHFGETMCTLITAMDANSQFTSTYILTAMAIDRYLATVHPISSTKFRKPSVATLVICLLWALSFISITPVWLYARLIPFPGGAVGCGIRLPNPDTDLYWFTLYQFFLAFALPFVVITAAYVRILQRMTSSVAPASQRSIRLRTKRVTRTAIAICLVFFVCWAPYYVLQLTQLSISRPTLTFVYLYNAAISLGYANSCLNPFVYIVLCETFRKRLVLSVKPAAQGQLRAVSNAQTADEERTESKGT
The series is described as follows: MCH1 binding assay I or II (radioligand binding, membranes of CHO cells expressing the receptor). The following applies: estimated based on the measured percent inhibition. An excerpt: Binding Assay I for Human Melanin-Concentrating Hormone (MCH1) Receptor
Evaluation of the affinity of compounds for the human MCH1 receptor was accomplished in transfected Chinese Hamster Ovary (CHO) cells determined in a radioligand binding assay, as described in MacDonald et al., “Molecular characterization of the melanin-concentrating hormone/receptor complex: identification of critical residues involved in binding and activation”, Mol Pharmacol., 58:217 (2000). […] Nonspecific binding was determined in the presence of 0.1 μM MCH. […] The filters were dried, then counted for radioactivity in a scintillation counter (Topcount, Packard) using a scintillation cocktail (Microscint 0, Packard).
The results are expressed as a percent inhibition of the control radioligand specific binding. The IC50 value (concentration causing a half-maximal inhibition of control specific binding) and Hill coefficient (nH) were determined by non-linear regression analysis of the competition curve using Hill equation curve fitting. The inhibition constant (Ki) was calculated from the Cheng Prusoff equation: (Ki=IC50/(1+(L/KD)), where L=concentration of radioligand in the assay, and KD=affinity of the radioligand for the receptor). […]
The results are expressed as a percent inhibition of the control radioligand specific binding. […]
`COc1ccc2c(c1)cc(-c1ccn(-c3ccc4c(cnn4CCN4CCCC4)c3)c(=O)c1)n2C` [Example 65, 4-(5-Methoxy-1-methyl-1H-indol-2-yl)-1-(1-(2-(pyrrolidin-1-yl)ethyl)-1H-indazol-5-yl)pyridin-2(1H)-one dihydrochloride]: the Ki was roughly 3 µM.

System in a further series: not given
Assay: not given
Settings: not given
Compound `Cc1ccc(-c2ccn(-c3ccc4c(cnn4CCN4CCCC4)c3)c(=O)c2)cc1.Cl` yielded a melting point of 240 to 246 °C.
Still for that read-out and setting: the same measure for `Cl.O=c1cc(-c2ccc(OC(F)(F)F)cc2)ccn1-c1ccc2c(cnn2CCN2CCCC2)c1`: 202 to 209 °C; for `Cl.N#Cc1ccc(-c2ccn(-c3ccc4c(cnn4CCN4CCCC4)c3)c(=O)c2)cc1`: 92 to 96 °C.
Turning to `COc1ccc(-c2ccn(-c3ccc4c(cnn4CCN4CCCC4)c3)c(=O)c2)cc1.Cl`, the melting point is 105 to 110 °C.
In turn, `Cl.N#Cc1cc(F)ccc1-c1ccn(-c2ccc3c(cnn3CCN3CCCC3)c2)c(=O)c1` registered a melting point of 81 to 86 °C.
Still for that read-out and setting: then `Cl.O=c1cc(-c2ccc(Cl)cc2)ccn1-c1ccc2c(cnn2CCN2CCCC2)c1`, with 255 to 260 °C (dec.); and `COc1ccc(-c2ccn(-c3ccc4c(cnn4CCN4CCCC4)c3)c(=O)c2)c(OC)c1.Cl`, with 95 to 115 °C; and `Cl.O=c1cc(-c2ccc(F)cc2F)ccn1-c1ccc2c(cnn2CCN2CCCC2)c1`, with 235 to 255 °C.
Still for that read-out and setting: the same measure for `CC(C)Oc1ccc(-c2ccn(-c3ccc4c(cnn4CCN4CCCC4)c3)c(=O)c2)cc1.Cl`: 235 to 250 °C.
On the same count and under the same terms, then `Cl.O=c1cc(-c2ccc(C(F)(F)F)cc2C(F)(F)F)ccn1-c1ccc2c(cnn2CCN2CCCC2)c1`, with 235 to 245 °C; and `CCCCOc1ccc(-c2ccn(-c3ccc4c(cnn4CCN4CCCC4)c3)c(=O)c2)c(C)c1.Cl`, with 80 to 95 °C; and `Cc1ccccc1-c1ccn(-c2ccc3c(cnn3CCN3CCCC3)c2)c(=O)c1.Cl`, with 80 to 95 °C.
Turning to `Cc1cc(OCc2ccccc2)ccc1-c1ccn(-c2ccc3c(cnn3CCN3CCCC3)c2)c(=O)c1.Cl`, the melting point was in the range of 75 to 85 °C.
`COc1cc(Cl)ccc1-c1ccn(-c2ccc3c(cnn3CCN3CCCC3)c2)c(=O)c1.Cl` came in with a melting point of 248 to 256 °C.
Turning to `Cl.O=c1cc(-c2ccc3c(c2)OCO3)ccn1-c1ccc2c(cnn2CCN2CCCC2)c1`, the melting point is 75 to 85 °C.
Compound `COc1ccc(-c2ccn(-c3ccc4c(cnn4CCN4CCCC4)c3)c(=O)c2)c(C)c1.Cl` had a melting point of 205 to 215 °C.
In turn, `Cl.O=c1cc(-c2cc3ccccc3s2)ccn1-c1ccc2c(cnn2CCN2CCCC2)c1` had a melting point of 260 to 264 °C.
Still for that read-out and setting: then `Cc1ccc(-c2ccn(-c3ccc4c(cnn4CCN4CCCC4)c3)c(=O)c2)nc1.Cl`, with 230 to 234 °C; and `Cl.O=c1cc(-c2ccc(C(F)(F)F)cc2)ccn1-c1ccc2c(cnn2CCN2CCOCC2)c1`, with 248 to 250 °C (dec.); and `Cl.O=c1cc(-c2cc3ccccc3o2)ccn1-c1ccc2c(cnn2CCN2CCCC2)c1`, with 256 to 260 °C.
The same measure, in the same setting: then `CN(C)CCn1ncc2cc(-n3ccc(-c4ccc(C(F)(F)F)cc4)cc3=O)ccc21.Cl`, with 222 to 224 °C; and `Cl.O=c1cc(-c2ccc(C(F)(F)F)cc2)ccn1-c1ccc2c(cnn2CCN2CCNCC2)c1`, with 222 to 224 °C (dec.); and `CN(C)CCCn1ncc2cc(-n3ccc(-c4ccc(C(F)(F)F)cc4)cc3=O)ccc21.Cl`, with 209 to 211 °C.
On the same count and under the same terms, the same measure for `Cl.NCCCn1ncc2cc(-n3ccc(-c4ccc(C(F)(F)F)cc4)cc3=O)ccc21`: 222 to 224 °C (dec.).
For `Cl.O=c1cc(-c2ccc(C(F)(F)F)cc2)ccn1-c1ccc2c(cnn2C[C@@H]2CCCN2)c1`, the melting point is 241 to 245 °C.
On the same count and under the same terms, the same measure for `CN(C)C[C@@H](O)Cn1ncc2cc(-n3ccc(-c4ccc(C(F)(F)F)cc4)cc3=O)ccc21.Cl`: 210 to 213 °C; for `Cl.O=c1cc(-c2ccc(C(F)(F)F)cc2)ccn1-c1ccc2c(cnn2C[C@H](O)CN2CCCC2)c1`: 116 to 119 °C; for `Cl.O=c1cc(-c2ccc(F)cc2)ccn1-c1ccc2c(cnn2CCN2CCCC2)c1`: 115 to 120 °C.
On the same count and under the same terms, the same measure for `Cl.O=c1cc(-c2ccc(C(F)(F)F)cc2)ccn1-c1ccc2c(cnn2CCN2CC3CC2CO3)c1` (stereo not shown): 148 to 150 °C; for `Cl.O=c1cc(-c2ccc(Cl)cc2F)ccn1-c1ccc2c(cnn2CCN2CCCC2)c1`: 215 to 230 °C.
The same measure, in the same setting: then `Cl.O=c1cc(-c2ccc(C(F)(F)F)cc2F)ccn1-c1ccc2c(cnn2CCN2CCCC2)c1`, with 80 to 95 °C.
For `COc1ccc(-c2ccn(-c3ccc4c(cnn4CCN4CCCC4)c3)c(=O)c2)c(F)c1.Cl`, the melting point lay within 230 to 240 °C.
`COc1ccc(-c2ccn(-c3ccc4c(cnn4CCN4CCCC4)c3)c(=O)c2)c(Cl)c1.Cl`: the melting point is 225 to 235 °C.
In turn, `CCOc1ccc(-c2ccn(-c3ccc4c(cnn4CCN4CCCC4)c3)c(=O)c2)cc1.Cl` showed a melting point of 255 to 265 °C.
`Cl.O=c1cc(-c2ccc(OC(F)(F)F)cc2F)ccn1-c1ccc2c(cnn2CCN2CCCC2)c1` showed a melting point of 215 to 225 °C.
`Cc1cc(OC(F)(F)F)ccc1-c1ccn(-c2ccc3c(cnn3CCN3CCCC3)c2)c(=O)c1.Cl` yielded a melting point of 185 to 195 °C.
Same read-out and setting: then `Cl.O=c1cc(-c2ccc3ccccc3c2)ccn1-c1ccc2c(cnn2CCN2CCCC2)c1`, with 128 to 134 °C; and `Cl.Cn1ncc2cc(-c3ccn(-c4ccc5c(cnn5CCN5CCCC5)c4)c(=O)c3)ccc21`, with 55 to 65 °C.
Compound `Cl.O=c1cc(-c2ccc(C(F)(F)F)cn2)ccn1-c1ccc2c(cnn2CCCN2CCCC2)c1` had a melting point of 110 to 120 °C.
The same measure, in the same setting: then `Cl.O=c1cc(-c2ccc(N3CCCCC3)cc2)ccn1-c1ccc2c(cnn2CCN2CCCC2)c1`, with 80 to 90 °C; and `Cc1ccc2oc(-c3ccn(-c4ccc5c(cnn5CCN5CCCC5)c4)c(=O)c3)nc2c1.Cl`, with 270 to 280 °C.
Same read-out and setting: then `COc1ccc2[nH]c(-c3ccn(-c4ccc5c(cnn5CCN5CCCC5)c4)c(=O)c3)cc2c1.Cl`, with 275 to 280 °C; and `Cl.O=c1cc(-c2ccc(-n3cccn3)cc2)ccn1-c1ccc2c(cnn2CCN2CCCC2)c1`, with 271 to 275 °C; and `CC1CC=C(c2ccn(-c3ccc4c(cnn4CCN4CCCC4)c3)c(=O)c2)CC1.Cl` (stereo not shown), with 256 to 260 °C.
Regarding `CC1CCC(c2ccn(-c3ccc4c(cnn4CCN4CCCC4)c3)c(=O)c2)CC1.Cl` (stereo not shown), the melting point was in the range of 80 to 85 °C.
As to `Cl.O=c1cc(-c2cccc(Cl)c2)ccn1-c1ccc2c(cnn2CCN2CCCC2)c1`, the melting point is 118 to 125 °C.
Still for that read-out and setting: the same measure for `O=c1cc(-c2cccc3ccccc23)ccn1-c1ccc2c(cnn2CCN2CCCC2)c1` (as salt: hydrochloride): 128 to 133 °C; for `O=c1cc(-c2ccc3ccccc3n2)ccn1-c1ccc2c(cnn2CCN2CCCC2)c1` (as salt: hydrochloride): 220 to 225 °C.
